In general, IC50 refers to the midpoint of a concentration-inhibition curve. What is called fraction unbound is the share of the substance not bound to proteins or other matrix. The low end stands for little free substance, the high end for much free substance. A word on the EC50: it is the concentration that produces a half-maximal response. In general, half-life refers to the time in which the quantity being followed falls by half. Usually AUC(0-inf) stands for the area under the concentration-time curve extrapolated to infinity. Low readings indicate less exposure, high ones more exposure. In general, AUC(0-t) refers to the area under the concentration-time curve up to a stated or last time point. Low readings indicate low exposure, high ones high exposure. By Cmax is commonly meant the peak of the concentration-time curve. A word on the Tmax: it is the time from dosing to the highest level. A word on the bioavailability: it is dose-corrected exposure relative to a reference, in per cent.

Series [1] addresses T1, recombinant human sEH (HsEH) (Homo sapiens, UniProt P34913).
T1 sequence (P34913 1-555): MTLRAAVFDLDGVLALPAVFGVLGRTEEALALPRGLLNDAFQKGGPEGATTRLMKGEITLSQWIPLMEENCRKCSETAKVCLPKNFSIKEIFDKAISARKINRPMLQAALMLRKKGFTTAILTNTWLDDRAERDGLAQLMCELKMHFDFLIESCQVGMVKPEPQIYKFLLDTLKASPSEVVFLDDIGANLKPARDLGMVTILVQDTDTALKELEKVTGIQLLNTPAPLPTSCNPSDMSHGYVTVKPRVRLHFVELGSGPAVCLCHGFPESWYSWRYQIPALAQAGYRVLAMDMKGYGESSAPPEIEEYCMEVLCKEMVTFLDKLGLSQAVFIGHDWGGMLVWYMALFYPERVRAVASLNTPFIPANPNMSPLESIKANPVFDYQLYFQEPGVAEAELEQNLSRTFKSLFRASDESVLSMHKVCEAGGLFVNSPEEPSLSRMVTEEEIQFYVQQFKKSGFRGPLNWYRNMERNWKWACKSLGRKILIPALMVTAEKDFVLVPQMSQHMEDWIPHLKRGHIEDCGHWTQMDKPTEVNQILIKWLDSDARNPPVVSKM
Protocol: (§1) Detection principle: a specific substrate, (3-phenyl-oxy)-acetic acid cyano-(6-methoxy-naphthalen-2-yl) methyl ester, namely PHOME, is non-fluorescent but can be hydrolyzed under the action of sEH enzyme to generate a product 6-methoxy-2-naphthaldehyde. […] Based on the above principle, the inhibition rates of samples with different concentrations were calculated compared with the positive control group. The IC50 value of the compound was calculated based on the inhibition rate and concentration using SPSS 20 software.
(§2) PHOME solution: 0.79 mg PHOME was dissolved in 106 µL DMSO to obtain a 20 mM PHOME solution, which was diluted to 1/3 mM with Tris-HCl buffer when used.
(§3) sEH solution: sEH (5 mg/mL) stock solution was stored in a -80°C refrigerator and diluted to 4 µg/mL with 25 mM Tris-HCl buffer when used.
(§4) A sample powder to be tested was dissolved in DMSO to a 20 mM solution, stored in a - 20°C refrigerator for later use, and diluted with Tris-HCl buffer to the corresponding concentration when used.
(§5) Experimental design: solvent group, 100% activity group (A), inhibitor group (B), positive control group (C), as shown in Table 1.
(§6) Three replicate wells were set for each sample, and the average of the three replicate wells was the fluorescence value (F) of the compound to be tested. […] The IC50 value of the compound was calculated based on the inhibition rate and concentration using SPSS 20 software.
(§7) The activity of the compounds was evaluated using a biochemical method with [cyano-(6-methoxynaphthalen-2-yl)methyl] 2-(3-phenyloxiran-2-yl)acetate (PHOME) as a substrate using recombinant human sEH (HsEH) and murine sEH (MsEH).

Series [2] has as its target T2, murine sEH (MsEH) (Mus musculus, UniProt P34914).
T2 sequence (P34914 1-554): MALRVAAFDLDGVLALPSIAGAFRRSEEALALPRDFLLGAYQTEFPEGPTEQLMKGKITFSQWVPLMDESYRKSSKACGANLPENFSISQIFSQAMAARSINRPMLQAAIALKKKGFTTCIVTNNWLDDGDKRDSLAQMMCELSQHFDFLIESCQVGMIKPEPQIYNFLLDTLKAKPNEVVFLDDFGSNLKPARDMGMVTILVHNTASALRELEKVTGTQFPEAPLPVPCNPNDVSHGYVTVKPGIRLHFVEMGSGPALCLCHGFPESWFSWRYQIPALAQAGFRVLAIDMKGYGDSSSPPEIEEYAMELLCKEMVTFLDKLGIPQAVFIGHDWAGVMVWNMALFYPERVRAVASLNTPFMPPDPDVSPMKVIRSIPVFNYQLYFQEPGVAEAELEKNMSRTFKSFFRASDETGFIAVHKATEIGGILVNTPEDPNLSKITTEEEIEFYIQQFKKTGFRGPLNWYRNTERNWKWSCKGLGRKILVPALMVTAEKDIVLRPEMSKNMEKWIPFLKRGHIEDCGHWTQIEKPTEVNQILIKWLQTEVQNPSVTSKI
As to conditions: read-out: MsEH IC50, PHOME substrate.
Protocol: as §1, §2, §3, §4, §5, §6, §7

Series [3] deals with T3, PPARγ (Homo sapiens, UniProt P37231).
T3 sequence (P37231 204-505): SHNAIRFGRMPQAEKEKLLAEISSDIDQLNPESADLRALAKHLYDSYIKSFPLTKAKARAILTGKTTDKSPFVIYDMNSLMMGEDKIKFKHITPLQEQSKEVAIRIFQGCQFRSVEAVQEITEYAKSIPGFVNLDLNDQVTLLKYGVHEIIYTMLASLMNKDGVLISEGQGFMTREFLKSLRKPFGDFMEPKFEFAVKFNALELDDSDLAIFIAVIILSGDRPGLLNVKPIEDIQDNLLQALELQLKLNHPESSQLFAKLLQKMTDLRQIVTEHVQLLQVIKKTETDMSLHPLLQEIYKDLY
The series is described as follows: PPARγ agonist activity test (luciferase reporter gene). Type of series: cell-based. As to conditions: for PPARγ (compared with Rosiglitazone, %): relative to Rosiglitazone. An excerpt:
• 1. PPARγ agonist activity test Detection principle: when pM-hPPAR binds to the appropriate ligand, and is activated and binds to the GAL4DNA binding site in the plasmid pB4-RES-tk-luc, thereby initiating the expression of the downstream luciferase reporter gene. The amount of luciferase is detected to determine whether the compound to be tested is a PPAR agonist. • 2.

Series [4] relates to LPS-induced sepsis model. Description: LPS-induced sepsis model. The series is classed as in vivo, Male C57BL/6 mice. As to conditions: LPS 25 mg/kg i.p., administration 4 h after modeling, twice at 8 h interval, n=7. The protocol:
The drug was administered twice, with an interval of 8 h between administrations.

Series [5] can be described thus: Plasma protein binding rate (equilibrium dialysis). Particulars: rat. Here is the method: The plasma protein binding rate (%PPB) of SD rats was measured by classical equilibrium dialysis apparatus.
For orientation: In equilibrium dialysis only unbound substance equilibrates across the membrane.

In series [6] the test system is CD60 diet + streptozotocin-induced diabetes. Description: CD60 feed + streptozotocin-induced diabetes model. As to conditions: SP compounds 30 and 90 mg/kg; pioglitazone 3 mg/kg. The series is classed as in vivo, male C57BL/6 mice. The source says: Diabetes is a chronic metabolic disease characterized by elevated blood glucose, and its incidence has been increasing over the past few decades. There is no desirable therapeutic drug at present, and the research on drugs for the treatment of diabetes and its related complications such as diabetic pain is highly urgent. […] Compared with the Control group, ****P<0.0001, ***P<0.001, **P<0.01 and *P<0.05.

For series [7], the target named is T2, murine sEH (MsEH). Description: biochemical.
Protocol: as §1, §2, §3, §4, §5, §6, §7
The nature of series [8]: Stability of liver microsomes. As to conditions: for Average concentration in microsomal buffer: Rat; for half-life: rat, microsomes. An excerpt: Table 5 Average concentration of SP-B07 in microsomal buffer at different time points (ng/mL)
For orientation: Liver microsomes are vesicles of endoplasmic reticulum, rich in cytochrome P450 enzymes.

Series [9] deals with CFA-induced AIA mouse model. Description: CFA-induced AIA mouse model, intraperitoneal injection. As to conditions: female KM mice, compared with celecoxib-10 mg/kg. Type of series: in vivo. Here is the method:
The pain threshold of AIA mice was tested by the hot plate method. […] A curve of the increase in pain threshold over time was plotted (panel (B) in FIG. 10), and the AUC value of the percentage increase in pain threshold was obtained (panel (C) in FIG. 10). […] Finally, the thickness of the paws of the AIA mouse model at different time points after compound injection was evaluated and compared with the thickness of the mouse paws before modeling, and the swelling reduction rate of the mouse paws was calculated.
The pain threshold of AIA mice was tested by the hot plate method. […] A curve of the increase in pain threshold over time was plotted (panel (B) in FIG. 11), and the AUC value of the percentage increase in pain threshold was obtained (panel (C) in FIG. 11). […] Finally, the thickness of the paws of the AIA mouse model at different time points after compound injection was evaluated and compared with the thickness of the mouse paws before modeling, and the swelling reduction rate of the mouse paws was calculated.

A short description of series [10]: Pharmacokinetics after intravenous and oral administration. Here is the method: Blood levels were measured within 8 hours after oral administration. […] Table 7 PK of SP-B07 after intravenous and oral administration in rats (n=3)
The mark [11] stands for this setting: read-out: HsEH IC50, recombinant human sEH, PHOME substrate.

Where two headings read alike, the source gives them in different places.

For `COC(=O)CN1C(=O)S/C(=C\c2ccc(O[C@H]3CC[C@H](NC(=O)NC45CC6C[C@@](C)(C4)C[C@](C)(C6)C5)CC3)cc2)C1=O` [SP-D04, methyl 2-(5-((Z)-4-(((1R,4r)-4-(3-((1R,3R,5S,7R)-3,5-dimethyladamantan-1-yl)ureido)cyclohexyl)oxy)benzylidene)-2,4-dioxythiazolin-3-yl)acetate], the IC50 in series [1] (setting [11]) was 1.2 nM; in series [2] it was 10.1 nM. In addition, in series [3], the “PPARγ (compared with Rosiglitazone, %)” value was 1.2%.

For `COC(=O)CN1C(=O)S/C(=C\c2ccc(O[C@H]3CC[C@H](NC(=O)Nc4ccc(OC(F)(F)F)cc4)CC3)cc2)C1=O` [SP-D01, methyl 2-(2,4-dioxo-5-((Z)-4-(((1r,4r)-4-(3-(4-(trifluoromethoxy)phenyl)ureido)cyclohexyl)oxy)benzylidene)thiazolidin-3-yl)acetate], the IC50 was determined as 1.1 nM in [1] (setting [11]) and 2.4 nM in series [2]. The “PPARγ (compared with Rosiglitazone, %)” value in series [3] came out at 1.1%.

`C[C@@H]1C[C@H]2[C@@H]3CCC4=CC(=O)C=C[C@]4(C)[C@@]3(F)[C@@H](O)C[C@]2(C)[C@@]1(O)C(=O)CO` [dexamethasone, reference compound]: the “increase of the survival rate” value in series [4] amounted to 57.1%.

For the compound `CCC(C)C(=O)Nc1ccc(OC2CCCC(NC(=O)NC34CC5CC(C)(CC(C)(C5)C3)C4)C2)cc1` (stereo not drawn) [SP-C01n], the IC50 came out at 0.7 nM in series [1] (setting [11]) and 1.3 nM in [2]. For the same compound, in series [3], the “PPARγ (compared with Rosiglitazone, %)” value was 0.7%.

`O=C1NC(=O)C(Cc2ccc(OC3CCN(C(=O)Nc4ccc(OC(F)(F)F)cc4)CC3)cc2)S1` (stereo not drawn) [SP-A05]: the IC50 in series [1] (setting [11]) was found to be 0.53 nM; in series [2] it was 0.43 nM. For the same compound, in series [3], the “PPARγ (compared with Rosiglitazone, %)” value is listed as 14.3%.

Take `CCC(=O)Nc1ccc(OC2CCCC(NC(=O)NC34CC5CC(C)(CC(C)(C5)C3)C4)C2)cc1` (stereo not drawn) [SP-C01m]: the IC50 in series [1] (setting [11]) was 0.9 nM; in series [2], 6.7 nM. Also, the “PPARγ (compared with Rosiglitazone, %)” value in series [3] came to 0.9%.

On to `O=C1NC(=O)C(Cc2ccc(OC3CCN(C(=O)Nc4ccc(OC(F)(F)F)c(F)c4)CC3)cc2)S1` (stereo not drawn) [SP-A06], for which the figures for the half-maximal inhibitory concentration (IC50) in [1] (setting [11]) and in series [2] were 1.3 nM and 0.73 nM, respectively. In addition, the “PPARγ (compared with Rosiglitazone, %)” value in [3] came to 28.4%.

In turn, `O=C(Nc1ccc(OC(F)(F)F)c(F)c1)NC1CCC(Oc2ccc(C=C3SC(=O)NC3=O)cc2)CC1` (stereo not drawn) [SP-B07, 1-((1r,4r)-4-{4-[(E)-(2,4-dioxothiazolidin-5-ylidene)methyl]phenoxy}cyclohexyl)-3-[3-fluoro-4-(trifluoromethoxy)phenyl]urea] gave a fraction unbound in series [5] of 0.0471. Moreover, in [6], the “lowering blood glucose and improving diabetic neuropathic pain” value was “effective”. In series [4], the “increase of the survival rate” value is 42.8%. In addition, the IC50 in [7] is 0.42 nM; in [1], 0.06 nM. A half-maximal effect in series [3] (EC50) was put at 1430 nM. In addition, in series [3], the “PPARγ (compared with Rosiglitazone, %)” value worked out at 19.3%. Further, the “Average concentration in microsomal buffer” value in [8] (0 min) is reported as 100 ng/mL; in [8] (10 min), 86.26 ng/mL; in series [8] (60 min), 58.82 ng/mL; in series [8] (120 min), 57.01 ng/mL; in [8] (240 min) it was 55.61 ng/mL; in series [8] (360 min) it was 52.33 ng/mL. Also, the “Average concentration in microsomal buffer” value in series [8] (720 min) is 43.73 ng/mL. The half-life in series [8] (half-life (t1/2) in rat liver microsomes, rat liver microsomes) is 5.5 h; in series [8] (t1/2, rat liver microsomes, table), 5.5 h; in [10] (rat, in vivo, iv, 10 mg/kg, t1/2, rats, i.v. 10 mg/kg) it was 1.91 h. The “analgesic effect (percentage increase in pain threshold, hot plate method)” value in series [9] is given as “better than that of celecoxib”. In series [9], the “detumescence rate on mouse paws (swelling reduction rate)” value was “superior to celecoxib”. Besides, the AUC(0-inf) came to 16.9 µM·h in series [10] (rat, in vivo, iv, 10 mg/kg) and 17.7 µM·h in series [10] (rat, in vivo, po, 50 mg/kg). For the same compound, the AUC(0-t) at 8 h in series [10] (rat, in vivo, iv, 10 mg/kg) came to 14.1 µM·h; in series [10] (rat, in vivo, po, 50 mg/kg), 13.8 µM·h. The Cmax in series [10] (rat, in vivo, iv, 10 mg/kg) was 3.29 µM; in series [10] (rat, in vivo, po, 50 mg/kg), 1.14 µM. The Tmax in [10] (rat, in vivo, iv, 10 mg/kg) worked out at 0.083 h; in [10] (rat, in vivo, po, 50 mg/kg) it was 0.5 h. Besides, in [10] (rat, in vivo, iv, 10 mg/kg), the Vd is 3.71 L/kg. Besides, the clearance in series [10] (rat, in vivo, iv, 10 mg/kg) is 0.79 L/h/kg. In [10] (rat, in vivo, po, 50 mg/kg), this compound showed a bioavailability of 19.5%. Further, the “time at which maximum concentration was reached after intravenous injection” value in series [10] (rats, i.v. 10 mg/kg) amounted to 2 min. This compound also returned a t1/2 in [10] (rats, i.v. 10 mg/kg, 10 mg/kg) of 3.26 h.

These data come from patent EP4563573A1, “COMPOUND, AND PREPARATION METHOD THEREFOR AND USE THEREOF IN PREPARATION OF SEH INHIBITOR AND PPARS AGONIST” (Shenyang Pharmaceutical University, priority 2023, dated 2024).
